Test results published in US8829200B2, “Benzimidazole inhibitors of leukotriene production” (Boehringer Ingelheim International GmbH, priority 2010, dated 2014).

Key:
[1] = biological target: recombinant human FLAP protein (Homo sapiens (Human), UniProt P20292); assay: FLAP binding assay (Scintillation Proximity Assay); settings: displacement of [125I]L-691,831, membranes of sf9 cells expressing human FLAP; read-out: SPA IC50
Description: Compounds are assessed for the ability to bind to FLAP in a binding assay that measures compound-specific displacement of an iodinated (^125I) FLAP inhibitor via a Scintillation Proximity Assay format (adapted from S. Charleson et al., Mol. Pharmacol., 1992, 41, 873-879).
Cell pellets produced from sf9 insect cells expressing recombinant human FLAP protein are resuspended in buffer A [15 mM Tris-HCl (pH 7.5), 2 mM MgCl2, 0.3 mM EDTA, 1 mM PMSF]. The cells are lysed with a Dounce homogenizer and the material is centrifuged at 10,000×g for 10 minutes. The supernatant is then collected and centrifuged at 100,000×g for 60 minutes. To prepare membrane protein for an assay, an aliquot of the 100,000×g pellet is resuspended in 1 ml of buffer A, Dounce homogenized, and finally subjected to polytron mixing (30 seconds). Membrane protein (25 μl, 5 μg) is mixed with WGA SPA beads (Amersham) and stirred for 1 h. To an assay plate (Perkin Elmer FlexiPlate) is added 25 μl of test compound prepared in Binding buffer [100 mM Tris (pH 7.5), 140 mM NaCl, 5% glycerol, 2 mM EDTA, 0.5 mM TCEP, 0.05% Tween 20], 25 μl of [^125I]L-691,831 (an iodinated analog of MK-591, Charleson et al. Mol. Pharmacol., 41, 873-879, 1992) and finally 50 μl of the bead/protein mixture. (final concentrations: beads, 200 μg/well; protein, 5 μg/well; [^125I] probe, 0.08 nM/well (17 nCi/well). The plates are shaken for 2 h before reading on a Microbeta plate reader. Non-specific binding is determined by the addition of 10 μM cold L-691,831 compound.

[2] = test system: synthesis of LTB4 in human whole blood; assay: human whole blood LTB4 production inhibition assay; assay type: cell-based; settings: heparinized human whole blood, calcimycin-stimulated, plasma LTB4; read-out: hWB IC50
Description: Compounds are additionally tested in a human whole blood assay to determine their ability to inhibit the synthesis of LTB4 in a cellular system. Compounds are combined with heparinized human whole blood and incubated for 15 minutes at 37° C. Calcimycin ([…], prepared in phosphate-buffered saline, pH 7.4) is then added and the mixture is incubated for another 30 minutes at 37° C. The samples are centrifuged for 5 min at low speed (1500×g) and the plasma layer is removed. Plasma LTB4 concentrations are then measured using an antibody-based homogenous time-resolved fluorescence method (CisBio, Bedford, Mass.).

recombinant human FLAP protein, sequence (P20292 whole entry): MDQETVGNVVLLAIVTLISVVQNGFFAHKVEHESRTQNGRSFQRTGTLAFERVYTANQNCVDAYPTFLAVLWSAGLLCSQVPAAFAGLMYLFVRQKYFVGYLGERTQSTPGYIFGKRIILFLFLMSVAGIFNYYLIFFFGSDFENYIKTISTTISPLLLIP

| IC50 [1] [nM] | IC50 [2] [nM] | Compound |
| --- | --- | --- |
| 1400 |  | CC(C)(C)n1c(-c2ccccc2C(=O)O)nc2cc(-c3cnc(N)nc3)ccc21 [Example 1, 2-[5-(2-Amino-pyrimidin-5-yl)-1-tert-butyl-1H-benzoimidazol-2-yl]-benzoic acid] |
| 0.91 | 763 | CC(C)(C)n1c(-c2ccccc2C(=O)Nc2ccncc2)nc2cc(-c3cnc(N)nc3)ccc21 [Example 3, 2-[5-(2-Amino-pyrimidin-5-yl)-1-tert-butyl-1H-benzoimidazol-2-yl]-N-pyridin-4-yl-benzamide] |
|  | 357 | CNC(=O)c1cc(F)c(F)cc1-c1nc2cc(-c3cnc(N)nc3)ccc2n1C(C)(C)C [Example 5, 2-[5-(2-Amino-pyrimidin-5-yl)-1-tert-butyl-1H-benzoimidazol-2-yl]-4,5-difluoro-N-methyl-benzamide] |
| 5.07 | 130 | CNC(=O)c1ccc(F)cc1-c1nc2cc(-c3cnc(N)nc3)ccc2n1C(C)(C)C [Example 6, 2-[5-(2-Amino-pyrimidin-5-yl)-1-tert-butyl-1H-benzoimidazol-2-yl]-4-fluoro-N-methyl-benzamide] |
| 21.9 | 414 | CNC(=O)c1cc(OC)ccc1-c1nc2cc(-c3cnc(N)nc3)ccc2n1C(C)(C)C [Example 7, 2-[5-(2-Amino-pyrimidin-5-yl)-1-tert-butyl-1H-benzoimidazol-2-yl]-5-methoxy-N-methyl-benzamide] |
| 7.4 | 94 | CNC(=O)c1ccc(C#N)cc1-c1nc2cc(-c3cnc(N)nc3)ccc2n1C(C)(C)C [Example 8, 2-[5-(2-Amino-pyrimidin-5-yl)-1-tert-butyl-1H-benzoimidazol-2-yl]-4-cyano-N-methyl-benzamide] |
| 111 | > 5000 | CNC(=O)c1ccc(-c2nn[nH]n2)cc1-c1nc2cc(-c3cnc(N)nc3)ccc2n1C(C)(C)C [Example 9, 2-[5-(2-Amino-pyrimidin-5-yl)-1-tert-butyl-1H-benzoimidazol-2-yl]-N-methyl-4-(2H-tetrazol-5-yl)-benzamide] |
|  | 1150 | CC(C)(C)n1c(-c2ccccc2C(N)=O)nc2cc(-c3cnc(N)nc3)ccc21 [Example 14, 2-[5-(2-Amino-pyrimidin-5-yl)-1-tert-butyl-1H-benzoimidazol-2-yl]-benzamide] |
| 220 | > 5000 | CC(C)(C)n1c(-c2cc(C(=O)O)ccc2F)nc2cc(-c3cnc(N)nc3)ccc21 [Example 15, 3-[5-(2-Amino-pyrimidin-5-yl)-1-tert-butyl-1H-benzoimidazol-2-yl]-4-fluoro-benzoic acid] |
| 645 |  | CC(C)(C)n1c(-c2cccc(C(=O)O)c2)nc2cc(-c3cnc(N)nc3)ccc21 [Example 16, 3-[5-(2-Amino-pyrimidin-5-yl)-1-tert-butyl-1H-benzoimidazol-2-yl]-benzoic acid] |
| 43.8 | 2870 | COCCNC(=O)c1ccccc1-c1nc2cc(-c3cnc(N)nc3)ccc2n1C(C)(C)C [Example 19, 2-[5-(2-Amino-pyrimidin-5-yl)-1-tert-butyl-1H-benzoimidazol-2-yl]-N-(2-methoxy-ethyl)-benzamide] |
| 2.2 | 2700 | CC(C)(C)n1c(-c2ccccc2C(=O)Nc2ccccn2)nc2cc(-c3cnc(N)nc3)ccc21 [Example 20, 2-[5-(2-Amino-pyrimidin-5-yl)-1-tert-butyl-1H-benzoimidazol-2-yl]-N-pyridin-2-yl-benzamide] |
| 14.7 | 3290 | CC(C)(C)NC(=O)c1ccccc1-c1nc2cc(-c3cnc(N)nc3)ccc2n1C(C)(C)C [Example 21, 2-[5-(2-Amino-pyrimidin-5-yl)-1-tert-butyl-1H-benzoimidazol-2-yl]-N-tert-butyl-benzamide] |
| 1.5 | 2250 | CC(C)(C)n1c(-c2ccccc2C(=O)Nc2cccnc2)nc2cc(-c3cnc(N)nc3)ccc21 [Example 22, 2-[5-(2-Amino-pyrimidin-5-yl)-1-tert-butyl-1H-benzoimidazol-2-yl]-N-pyridin-3-yl-benzamide] |
|  | 939 | CC(C)(C)n1c(-c2cc(F)ccc2C(=O)NCc2cccnc2)nc2cc(-c3cnc(N)nc3)ccc21 [Example 32, 2-[5-(2-Amino-pyrimidin-5-yl)-1-tert-butyl-1H-benzoimidazol-2-yl]-4-fluoro-N-pyridin-3-ylmethyl-benzamide] |

The next lines start with the molecule.

| Compound | IC50 [1] [nM] | IC50 [2] [nM] |
| --- | --- | --- |
| CC(C)(C)n1c(-c2ccccc2C(=O)NC2CC2)nc2cc(-c3cnc(N)nc3)ccc21 [Example 2, 2-[5-(2-Amino-pyrimidin-5-yl)-1-tert-butyl-1H-benzoimidazol-2-yl]-N-cyclopropyl-benzamide] | 25.2 | 2190 |
| CNC(=O)c1ccccc1-c1nc2cc(-c3cnc(N)nc3)ccc2n1C(C)(C)C [Example 4, 2-[5-(2-Amino-pyrimidin-5-yl)-1-tert-butyl-1H-benzoimidazol-2-yl]-N-methyl-benzamide] | 11.4 | 433 |
| CC(C)(C)n1c(-c2cc(C#N)ccc2C(=O)NC#N)nc2cc(-c3cnc(N)nc3)ccc21 [Example 10, 2-[5-(2-Amino-pyrimidin-5-yl)-1-tert-butyl-1H-benzoimidazol-2-yl]-4-cyano-N-cyano-benzamide] | 6.09 |  |
| CC(C)(C)n1c(-c2cc(C#N)ccc2C(=O)NS(C)(=O)=O)nc2cc(-c3cnc(N)nc3)ccc21 [Example 11, N-{2-[5-(2-Amino-pyrimidin-5-yl)-1-tert-butyl-1H-benzoimidazol-2-yl]-4-cyano-benzoyl}-methanesulfonamide] | 55.6 |  |
| CN(C)C(=O)c1ccc(F)c(-c2nc3cc(-c4cnc(N)nc4)ccc3n2C(C)(C)C)c1 [Example 12, 3-[5-(2-Amino-pyrimidin-5-yl)-1-tert-butyl-1H-benzoimidazol-2-yl]-4-fluoro-N,N-dimethyl-benzamide] | 610 | > 5000 |
| COC(=O)c1ccccc1-c1nc2cc(-c3cnc(N)nc3)ccc2n1C(C)(C)C [Example 17, 2-[5-(2-Amino-pyrimidin-5-yl)-1-tert-butyl-1H-benzoimidazol-2-yl]-benzoic acid methyl ester] | 22 |  |
| CC(C)(C)n1c(-c2ccccc2C(=O)NCC2CCCO2)nc2cc(-c3cnc(N)nc3)ccc21 (stereo not shown) [Example 18, 2-[5-(2-Amino-pyrimidin-5-yl)-1-tert-butyl-1H-benzoimidazol-2-yl]-N-(tetrahydro-furan-2-ylmethyl)-benzamide] | 18.8 | 2440 |
| CN(C(=O)c1ccccc1-c1nc2cc(-c3cnc(N)nc3)ccc2n1C(C)(C)C)c1ccccn1 [Example 27, 2-[5-(2-Amino-pyrimidin-5-yl)-1-tert-butyl-1H-benzoimidazol-2-yl]-N-methyl-N-pyridin-2-yl-benzamide] | 180 |  |
| CCNC(=O)c1ccc(F)cc1-c1nc2cc(-c3cnc(N)nc3)ccc2n1C(C)(C)C [Example 30, 2-[5-(2-Amino-pyrimidin-5-yl)-1-tert-butyl-1H-benzoimidazol-2-yl]-N-ethyl-4-fluoro-benzamide] |  | 413 |
| CC(C)(C)n1c(-c2cc(F)ccc2C(=O)Nc2cccnc2)nc2cc(-c3cnc(N)nc3)ccc21 [Example 31, 2-[5-(2-Amino-pyrimidin-5-yl)-1-tert-butyl-1H-benzoimidazol-2-yl]-4-fluoro-N-pyridin-3-yl-benzamide] |  | 1950 |
| COc1cncc(-c2ccc3c(c2)nc(-c2cccc(C(N)=O)c2)n3C(C)(C)C)c1 [Example 35, 3-[1-tert-Butyl-5-(5-methoxy-pyridin-3-yl)-1H-benzoimidazol-2-yl]-benzamide] | 4700 |  |
